Laboratory results reported in patent US20250066286A1, “COMPOSITIONS OF (Z)-ENDOXIFEN AND METHODS OF ENRICHMENT THEREOF” (Atossa Therapeutics, Inc., priority 2022, published 2025).
Like-named read-outs stand apart in the source and are kept apart here.

Tests used:
[1] = Storage stability of polymorphic forms at room temperature in a sealed vial (XRPD time course); assay type: physicochemical
Procedure: Form I samples were collected for XR-PD analysis following 0, 7, and 42 days of storage, the results of which are shown in FIG. 10.
The stability of polymorphic Form IV was evaluated over 7 days of storage at room temperature in a sealed vial. Portions of the Form IV samples were collected for XRPD analysis following 0 (Form IV), 3 (Form IV-3D3-storage), and 7 days (Form IV-7D3-storage) of storage, the results of which are shown in FIG. 14.
The stability of polymorphic Form IV was also evaluated following crystallization from a room temperature 2-propanol/THF 95/5 (v/v) solvent system containing 40 mg/ml (Z)-endoxifen. XPRD was collected immediately after recovery and following 15 days storage at room temperature in a sealed vial. FIG. 15 provides the resultant XRPD patterns following 15 days storage (Form IV-2PR/THF-15D-storage) and 0 days storage (Form IV-2PR/THF-0D-storage), as well as an XRPD spectrum of Form IV (Form IV) obtained from 2-propanol recrystallization.
Since the room temperature evaporation in acetone yielded a mixture of polymorphic Form I and Form IV XRPD patterns with a very intense unassigned signal at 16.1° 2θ, the sample was re-measured following 7 days storage in a sealed vial. From top to bottom, FIG. 16 provides XRPD patterns of the acetone-generated polymorphs following 7 (EVRT-ACT-7D-storage) and 0 days of storage (EVRT-ACT-0D-storage), a Form IV spectrum (Form IV), and a Form I (Form I) spectrum, respectively.
Form XVII was further assessed after 3 days storage in a sealed vial at room temperature.
Form XVIII was further reassessed by XRPD following 3 and 7 days storage at room temperature in a sealed vial. The data from these analyses are summarized in FIG. 24, which (from top to bottom) provides the sample following 7 days storage (Form XVIII-7D-storage), the sample following 3 days storage (Form XVIII-3D-storage), and the sample immediately following crystallization (Form XVIII).
Form XIX room temperature stability was evaluated with XRPD. XRPD of a Form XIX sample immediately following crystallization (Form XIX) and following 7 days of storage (Form XIX-7D-storage) are shown in FIG. 26.
The stability of polymorphic Form V was over 10 days of storage at room temperature in a sealed vial. XR-PD was performed following 0, 3, and 10 days storage.
To evaluate Form VI stability, XRPD spectra of a Form VI sample were collected following 0, 3, and 14 days of room temperature storage in a sealed vial. The resulting XRPD patterns of the sample following 0 (Form VI), 3 (Form VI-3D-storage), and 14 days storage (Form VI-14D-storage) are shown in FIG. 30.
The stability of polymorphic Form VII was evaluated over 7 days of storage at room temperature in a sealed vial. Portions of the Form VII samples were collected for XRPD analysis over 7 days of storage, the results of which are shown in FIG. 32.
Form VIII stability over 7 days storage in a sealed vial at room temperature was evaluated with XRPD.
The stability of Form IX generated by precipitation from an ethyl acetate/heptane solvent system (Form IX Recrystallization (1)) was evaluated over 7 days of storage at room temperature. Portions of the Form IX sample were collected following 0 and 7 days of storage in a sealed vial and analyzed by XRPD analysis to identify possible changes in the polymorph.
Form IX stability was separately characterized for crystals generated through the addition of (Z)-endoxifen saturated ethyl acetate to heptane (Form IX Recrystallization (2)), which yielded higher crystallinity Form IX than was afforded by heptane addition to (Z)-endoxifen saturated ethyl acetate.
Form IX stability was further evaluated for crystals generated by precipitation from an acetone/butyl methyl ether (acetone/BME) solvent/antisolvent mixture (Form IX Recrystallization (4)). Portions of the Form IX sample were collected following 0 and 5 days of storage in a sealed vial at room temperature and compared to reference XRPD patterns of Forms VII and IX. […]

[2] = Thermogravimetric analysis (TGA), degradation; assay type: physicochemical
Procedure: The TGA profile of Form I is shown in the top panel of FIG. 12 with the heat-flow profile in the middle panel of FIG. 12, and the first derivative of the TGA profile in the bottom pane of FIG. 12. […] A weight loss of 0.2% was detected between 140° C. and 180° C., potentially ascribable to solvent release. Degradation of Form I took place above 270° C. The heat-flow profile included two main peaks around 50° C. and 160° C. The first derivative of the TGA profile indicated a greatest decline in the TGA profile occurred around 400° C., and that weight loss occurred around 320° C.

[3] = Mechanical stability: grinding and kneading by ball milling (XRPD); assay type: physicochemical; conditions: for XRPD pattern after mechanical grinding: 10 minutes ball milling at 30 Hz; for XRPD pattern after kneading: 10 minutes ball milling at 30 Hz with catalytic 2-propanol (2 μl)
Procedure: Stability tests were performed on mixtures of Form I and Form IV; Form I and Form VII; and Form I, Form IV, and Form VII. In a first mechanical stability test, the polymorphs were analyzed by XRPD following 10 minutes of grinding by ball milling at 30 Hz. In a second mechanical stability test, the polymorphs were analyzed by XRPD following 10 minutes of kneading by ball milling at 30 Hz in the presence of a catalytic amount of 2-propanol (2 μl).

[4] = Stability at various temperatures and relative humidities, seven days (XRPD); assay type: physicochemical; conditions: 7 days
Procedure: The stabilities of the polymorphs were also assessed at various temperatures and relative humidities. These analyses were performed by storing 20 mg of polymorph samples for seven days at: (1) 25° C. and 100% relative humidity, (2) 40° C. and 75% relative humidity, (3) 25° C. and 60% relative humidity, and (4) at 60° C. and 75% relative humidity. XRPD was collected on the samples following these incubations and compared to XRPD of the samples prior to storage.

[5] = Thermal treatment of Form IV at 90° C. and 50 mbar (XRPD); assay type: physicochemical
Procedure: To confirm the DSC results, Form IV deterioration was subject to thermal treatment by incubation for 1 hour at 90° C. and 50 mbar, storage for 18 hours at room temperature, and a second incubation for 3.5 hours 90° C. and 50 mbar. XRPD analysis was performed on the sample following the 1 hour incubation at 90° C. and 50 mbar, after the 18 hours of storage at room temperature, and after the final 3.5 hour incubation 90° C. and 50 mbar.

[6] = Slurries with amorphous (Z)-endoxifen (XRPD); assay type: physicochemical; conditions: for Polymorphic form recovered (XRPD): 22 days stirring at room temperature
Procedure: Further slurry experiments were performed utilizing amorphous (Z)-endoxifen as an input. 20 mg of amorphous (Z)-endoxifen was suspended in 200 μl of various solvent mixtures. Following 22 days of stirring at room temperature, solid (Z)-endoxifen was recovered from the slurries during centrifugation at 4000 rpm for 3 minutes with a nylon filter (0.22 μm).

[7] = cited from earlier work
[8] = sample from scaled-up crystallization
[9] = 25° C. and 100% relative humidity
[10] = 40° C. and 75% relative humidity
[11] = 7 days, room temperature, sealed vial

Row | Compound | Degradation temperature (TGA) [2] | Degradation temperature (TGA) [2, 8] | XRPD pattern after mechanical grinding [3] | XRPD pattern after kneading [3] | XRPD pattern after storage [4, 9] | XRPD pattern after storage [4, 10] | XRPD change on storage [1, 11] | other results
1 | CC/C(=C(\c1ccc(O)cc1)c1ccc(OCCNC)cc1)c1ccccc1 [Form I, (Z)-endoxifen] | above 270 °C | 270 °C | converted portions of Form I to amorphous endoxifen | converted portions of Form I to amorphous endoxifen | did not induce detectable changes in the Form I XRPD | no significant changes to the XRPD pattern | – | XRPD change on storage ([1]; 0, 7, and 42 days of storage): stable under ambient conditions
2 | CC/C(=C(\c1ccc(O)cc1)c1ccc(OCCNC)cc1)c1ccccc1 [Form IV, (Z)-endoxifen] | above 270 °C | above 270 °C | Form I with a mild signal at 4.8° 20 ascribable to Form IV | mixture of Form I and Form IV | Form I with trace of Form IV | Form I with minor traces of Form IV | stable under ambient conditions | XRPD change on storage ([1]; 15 days, room temperature, sealed vial, sample crystallized from 2-propanol/THF 95/5 (v/v)): maintained a Form IV XRPD pattern following 15 days storage, its XRPD spectrum also exhibited a new signal at 16.1° 2θ; XRPD pattern after thermal treatment ([5]; after 1 hour at 90° C. and 50 mbar): Form IV with traces of Form I; XRPD pattern after thermal treatment ([5]; after final 3.5 hour treatment at 90° C. and 50 mbar (following 1 hour at 90° C. and 18 hours at room temperature)): Form IV with traces of Form I
3 | CC/C(=C(\c1ccc(O)cc1)c1ccc(OCCNC)cc1)c1ccccc1 [Form IX, (Z)-endoxifen] | above 270 °C | – | – | – | – | – | – | XRPD change on storage ([1]; 5 days, room temperature, sealed vial, Form IX from acetone/butyl methyl ether (Form IX Recrystallization (4))): new signal at 9.1° 2θ, possibly indicating the presence of Form VII as well as partial amorphization of the sample; XRPD change on storage ([1]; 7 days, room temperature, sealed vial, Form IX Recrystallization (1), ethyl acetate/heptane): stable under ambient conditions; XRPD change on storage ([1]; 7 days, room temperature, sealed vial, Form IX Recrystallization (2)): weak XRPD signals ascribable to small amounts of Form I; XRPD change on storage ([1]; 8 days, room temperature, sealed vial, Form IX from room temperature ethyl acetate/heptane 50/50 (v/v) slurries, unassigned signals at 10.1, 11.7, 16.8, 18.5, 19.4, 23.1): these peaks persisted following 8 days of storage; XRPD change on storage ([1]; 13 days, room temperature, sealed vial, Form IX Recrystallization (2)): weak XRPD signals ascribable to small amounts of Form I
4 | CC/C(=C(\c1ccc(O)cc1)c1ccc(OCCNC)cc1)c1ccccc1 [Form VII, (Z)-endoxifen] | above 270 °C | – | – | – | no significant change to the XRPD pattern | no significant change to the XRPD pattern | stable under ambient conditions | –
5 | CC/C(=C(\c1ccc(O)cc1)c1ccc(OCCNC)cc1)c1ccccc1 [amorphous (Z)-endoxifen, (Z)-endoxifen] | – | – | – | – | – | – | – | XRPD change on storage ([1]; 18 days, room temperature): stable and does not convert into other polymorphic forms; Output Main phase [phase] ([6]; SLRT: acetone/tetrahydrofuran 90/10, 100 mg/mL, RT, 22 d, amorphous input): Form I; Polymorphic form recovered (XRPD) ([6]; acetone/tetrahydrofuran slurry): Form I with additional unassigned peaks; Polymorphic form recovered (XRPD) ([6]; ethyl acetate/heptane slurry): Form IX; Polymorphic form recovered (XRPD) ([6]; one of the 2-propanol/tetrahydrofuran slurries): Form IV
6 | CC/C(=C(\c1ccccc1)c1ccc(OCCN(C)C)cc1)c1ccccc1 [tamoxifen, (Z)-2-[4-(1,2-diphenyl-1-butenyl)phenoxy]-N,N-dimethylethanamine] | – | – | – | – | – | – | – | Terminal elimination half-life ([7]; in vivo): 120 to 170 h; Peak concentration time ([7]; post-dose): approximately 5 hours; Reported therapeutic levels of plasma tamoxifen ([7]; subjects dosed with 20 mg of oral tamoxifen): ≥ 30 nM
